This note sets out measurements from article PMC11449226, “Characterization of a β-carotene isomerase from the cyanobacterium Cyanobacteria aponinum” (Philosophical Transactions of the Royal Society B: …, 2024).

The experiment has as its target T1, CaD27 (Cyanobacterium aponinum, UniProt K9Z764).
T1 construct: gene Cyan10605_2981; thioredoxin fusion (pThio-Dan1-CaD27(-cTP)) in E. coli BL21(DE3) with pGro7 chaperones; crude lysate; Pfam PF13225 family
T1 sequence (K9Z764 1-216): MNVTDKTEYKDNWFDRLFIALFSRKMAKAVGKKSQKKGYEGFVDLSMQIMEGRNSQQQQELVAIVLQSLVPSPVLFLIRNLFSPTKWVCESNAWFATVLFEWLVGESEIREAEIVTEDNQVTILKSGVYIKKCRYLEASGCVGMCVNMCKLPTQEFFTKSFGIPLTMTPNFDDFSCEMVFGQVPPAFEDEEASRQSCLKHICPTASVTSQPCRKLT
Put plainly: isomerization assay, UHPLC. It counts as biochemical. The following applies: crude lysate of E. coli expressing thioredoxin-CaD27, compared with thioredoxin control.

Consider `CC1=C(/C=C/C(C)=C/C=C/C(C)=C\C=C\C=C(C)\C=C\C=C(C)\C=C\C2=C(C)CCCC2(C)C)C(C)(C)CCC1` [13-cis-β-carotene], for which the “isomerization assay, UHPLC” value (product 9-cis-beta-carotene) is recorded as “thioredoxin-CaD27 converted 13-cis-β-carotene into 9-cis-β-carotene”.

Consider `CC1=C(/C=C/C(C)=C/C=C/C(C)=C/C=C/C=C(C)/C=C/C=C(C)/C=C/C2=C(C)CCCC2(C)C)C(C)(C)CCC1` [all-trans-β-carotene], for which the “isomerization assay, UHPLC” value (products 9-cis- and 13-cis-beta-carotene, also tested in beta-carotene-accumulating E. coli) is “we only detected the isomerization of all-trans-β-carotene into 9-cis, and 13-cis-β-carotene”.
